Measurements reported in patent publication US8415293B2, “Peptide mediators of cholesterol efflux” (The Regents of the University of California, priority 2008, dated 2013).
Square brackets hold non-standard residues; d marks the D form. Ends that are not written are not given here.

Assays:
ABCA1 [1] = biological target: T1, ABCA1 (Mus musculus, UniProt P41233); test: Cholesterol efflux from [3H]cholesterol-labeled J774 macrophages ± cAMP (upregulates ABCA1); assay type: cell-based; conditions: for % cholesterol efflux (8 hours): J774 macrophages; for cholesterol efflux from cells induced for the ABCA1 response (in words): lipid-free peptide 30 μg/ml, 8 h, +cAMP compared to no cAMP
T1 construct: cell lines in which cholesterol efflux can be enhanced using a cAMP analog that up-regulates ABCA1 protein expression (e.g., J774 macrophages); endogenous in cells; host or cells: J774 macrophages
T1 sequence (P41233 whole entry): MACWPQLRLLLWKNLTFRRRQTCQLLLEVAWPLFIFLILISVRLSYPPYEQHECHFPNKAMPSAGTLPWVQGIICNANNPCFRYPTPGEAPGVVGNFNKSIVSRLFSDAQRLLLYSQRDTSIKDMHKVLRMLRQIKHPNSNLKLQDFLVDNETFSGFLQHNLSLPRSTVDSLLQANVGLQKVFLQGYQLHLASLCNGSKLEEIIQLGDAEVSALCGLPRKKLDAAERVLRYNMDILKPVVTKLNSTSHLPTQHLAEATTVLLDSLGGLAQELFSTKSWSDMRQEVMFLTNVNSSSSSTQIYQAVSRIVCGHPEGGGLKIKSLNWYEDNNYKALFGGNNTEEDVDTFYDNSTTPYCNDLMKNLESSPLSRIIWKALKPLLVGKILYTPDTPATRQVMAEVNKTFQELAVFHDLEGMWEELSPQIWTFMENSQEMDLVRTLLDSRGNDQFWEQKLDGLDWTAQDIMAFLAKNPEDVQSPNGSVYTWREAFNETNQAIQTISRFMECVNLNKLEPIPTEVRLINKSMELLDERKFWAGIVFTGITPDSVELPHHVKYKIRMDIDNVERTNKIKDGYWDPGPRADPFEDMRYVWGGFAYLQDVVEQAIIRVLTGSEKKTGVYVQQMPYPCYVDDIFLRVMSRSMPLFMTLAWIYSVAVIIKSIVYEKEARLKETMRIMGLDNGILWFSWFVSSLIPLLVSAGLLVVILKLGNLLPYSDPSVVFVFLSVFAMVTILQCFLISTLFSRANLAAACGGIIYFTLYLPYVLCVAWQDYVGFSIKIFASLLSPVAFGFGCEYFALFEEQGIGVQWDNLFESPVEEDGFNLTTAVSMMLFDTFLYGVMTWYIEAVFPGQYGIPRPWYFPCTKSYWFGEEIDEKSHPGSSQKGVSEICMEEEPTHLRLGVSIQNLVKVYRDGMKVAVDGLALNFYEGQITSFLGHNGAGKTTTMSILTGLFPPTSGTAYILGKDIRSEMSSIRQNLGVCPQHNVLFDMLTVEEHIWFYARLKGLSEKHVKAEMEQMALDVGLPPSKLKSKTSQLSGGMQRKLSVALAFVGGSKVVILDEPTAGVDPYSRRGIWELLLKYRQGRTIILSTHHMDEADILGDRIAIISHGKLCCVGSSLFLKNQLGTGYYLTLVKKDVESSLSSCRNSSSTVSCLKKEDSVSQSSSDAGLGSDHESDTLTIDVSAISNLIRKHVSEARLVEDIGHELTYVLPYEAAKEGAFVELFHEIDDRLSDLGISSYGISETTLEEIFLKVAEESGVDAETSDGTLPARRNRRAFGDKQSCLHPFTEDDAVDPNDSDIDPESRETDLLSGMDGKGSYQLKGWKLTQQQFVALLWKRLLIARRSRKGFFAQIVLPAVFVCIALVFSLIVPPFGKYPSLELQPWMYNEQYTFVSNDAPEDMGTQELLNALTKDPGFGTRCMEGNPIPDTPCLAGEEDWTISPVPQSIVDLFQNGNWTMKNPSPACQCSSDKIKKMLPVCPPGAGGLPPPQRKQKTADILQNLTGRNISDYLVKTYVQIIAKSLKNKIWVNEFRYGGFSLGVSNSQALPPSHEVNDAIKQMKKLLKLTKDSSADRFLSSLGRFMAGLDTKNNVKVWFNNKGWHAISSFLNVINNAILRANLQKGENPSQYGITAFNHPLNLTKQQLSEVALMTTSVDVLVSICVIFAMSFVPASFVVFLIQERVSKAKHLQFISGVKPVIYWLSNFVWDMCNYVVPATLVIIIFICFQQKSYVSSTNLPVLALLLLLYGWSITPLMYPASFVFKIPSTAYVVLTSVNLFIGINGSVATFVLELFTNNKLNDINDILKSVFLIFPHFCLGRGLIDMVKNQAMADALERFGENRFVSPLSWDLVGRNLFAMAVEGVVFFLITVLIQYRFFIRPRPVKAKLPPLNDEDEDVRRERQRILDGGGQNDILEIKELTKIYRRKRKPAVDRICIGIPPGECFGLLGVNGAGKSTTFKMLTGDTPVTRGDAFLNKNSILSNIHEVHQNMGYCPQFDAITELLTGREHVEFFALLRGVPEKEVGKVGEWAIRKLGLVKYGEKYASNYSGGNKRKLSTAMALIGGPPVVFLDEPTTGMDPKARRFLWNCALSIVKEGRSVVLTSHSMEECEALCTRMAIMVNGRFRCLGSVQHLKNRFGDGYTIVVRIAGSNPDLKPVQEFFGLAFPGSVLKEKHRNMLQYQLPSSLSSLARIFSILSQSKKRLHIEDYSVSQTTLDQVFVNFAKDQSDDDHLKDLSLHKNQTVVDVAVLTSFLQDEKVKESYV
Text: Suitable cholesterol efflux assays are described in, […] and Oda, M. N., Biochemistry, 41:2089-2096 (2002); Jia et al., Biochem. Biophys. Res. Common., 297:206-213 (2002). In some embodiments, a polypeptide known to mediate cholesterol efflux (e.g., helix 9/10 of Apo A-I) is used to screen for additional mediators of cholesterol efflux in a cell based assay. For example, cell lines in which cholesterol efflux can be enhanced using a cAMP analog that up-regulates ABCA1 protein expression (e.g., J774 macrophages) can conveniently be used to assess the ability of a polypeptide of the present invention to mediate cholesterol efflux. The cells are incubated with labeled cholesterol (e.g., [^3H]cholesterol) under conditions appropriate for cholesterol uptake by the cells. Thus, cAMP or cAMP analogs (e.g., CPT-cAMP) are incubated with the cells for a suitable time before the initiation of cellular cholesterol efflux, i.e., prior to contacting the cells with a test polypeptide. Measurement of labeled cholesterol appearing in the medium is used to determine the cholesterol efflux mediating activity of the test polypeptide. […] J774 cells plated on 24-well culture plates were labeled (48 h) with 1 μCi/ml of [^3H]cholesterol in 1% FBS. A cAMP analog was added (0.3 mM) to some wells (12-18 h) to up-regulate ABCA1 expression. Following cAMP treatment, cells were rinsed, and then exposed to peptide in serum-free medium. Panel A provides data showing the dependence of cholesterol efflux on concentration (lipid-free SEQ ID NO:2 peptide (squares) and lipid-free apolipoprotein(apo)A-I (circles)); cAMP-treated cells were used. The percentage of cellular [^3H]cholesterol that appeared in the medium at 8 h is shown, subtracting background efflux to serum-free medium alone. Values are means±SD; apoA-I, n=8; SEQ ID NO:2 peptide, n=3. Km values reflecting efficiency for cholesterol efflux stimulation were calculated (Prism 4 software) from concentration-dependence curves using the Michaelis-Menton equation and 4 h efflux data.

[2] = Scaled = (Raw + 2.061)/4.484; Black and Mould 1991; cited from earlier work
ABCA1 [3] = biological target: T1, ABCA1; test: Cholesterol efflux activity of peptides after exposure to acrolein (MPO-derived oxidation product), J774 macrophages + cAMP; assay type: cell-based; conditions: acrolein:peptide mole ratio 25:1, 18 h, 37° C.; efflux at 2 μg/ml
Protocol: Peptides corresponding to SEQ ID NO:2 and SEQ ID NO:12 were exposed to acrolein (acrolein:peptide mole ratio=25:1) for 18 h at 37° C. Control peptides were similarly incubated in the absence of acrolein. Control and acrolein-treated peptides were then dialyzed and used for cholesterol efflux experiments. […] J774 macrophages treated with cAMP, which up-regulates ABCA1, were used in both panels. Cholesterol efflux assays were conducted using peptides at 2 μg/ml serum free-medium.

ABCA1 [4] = biological target: T1, ABCA1; test: Cholesterol efflux from [3H]cholesterol-labeled J774 macrophages ± cAMP (upregulates ABCA1); assay type: cell-based; conditions: concentration dependence
[5] = test system: HDL subpopulations in human plasma; test: preβ-1 HDL formation in human plasma (2D gel electrophoresis, apoA-I Western blot); assay type: biochemical; conditions: peptide 30 μg/ml (peptide:apoA-I mole ratio ~1:5), 5 minutes, 37° C.
Protocol: Peptide of the invention may also be screened for the ability to induce preβ-1 HDL formation in human plasma. In one example of such an analysis, a peptide to be tested is added to human plasma. Plasma with and without peptide are incubated and then evaluated, e.g., by agarose gel electrophoresis in the first dimension followed by native gradient gel electrophoresis in the second dimension to evaluate the population of HDL particles present in the human plasma samples.
Peptides corresponding to SEQ ID NO:2 were added to human plasma at a final concentration of 30 μg/ml (i.e. peptide:apoA-I mole ratio ˜1:5). Plasma with and without peptide were subsequently incubated for 5 minutes at 37° C. Following incubations, samples of plasma were subjected to agarose gel electrophoresis in the first dimension followed by native gradient gel electrophoresis in the second dimension. Proteins on resulting gels were transferred to nitrocellulose and analyzed by Western-blot analysis using an apoA-I antibody. The distribution of HDL subpopulations in plasma treated with vehicle alone (open bars), SEQ ID NO:2 peptide composed of all D-amino acids (intermediate shade), and SEQ ID NO:2 peptide composed of all L-amino acids (darkly shaded) is shown. […] Reductions of α-HDL subpopulations indicate that peptides specifically interact with distinct HDL species to generate preβ-1 apoA-I particles.

## apoA-I: full-length apolipoprotein A-I, polypeptide comprising 243 amino acids, used lipid-free as comparator [reference compound]
ABCA1 [1]; lipid-free, cAMP-treated cells, 4 h efflux data, read-out: Km for cholesterol efflux stimulation, molar basis
  Km: 0.12 ± 0.02 µM
ABCA1 [1]; lipid-free, cAMP-treated cells, Michaelis-Menton fit of 4 h efflux data
  Km for cholesterol efflux stimulation, mass basis: 3.4 ± 0.6 µg/mL

## ELREKLEAWREAFEEFFARFKS [N257-11]
ABCA1 [1]; + cAMP (ABCA1 upregulated)
  % cholesterol efflux (8 hours): 6.99 ± 1.4%
ABCA1 [1]; no cAMP
  % cholesterol efflux (8 hours): 0.91 ± 0.1%

## N[C@@H](CCC(=O)O)C(=O)O [Glutamate]
[2]
  Hydrophobicity (scaled computational log(P)): 0.043

## N=C(N)NCCC[C@H](N)C(=O)O [Arginine]
[2]
  Hydrophobicity (scaled computational log(P)): 0.000

## C[C@@H](O)[C@H](N)C(=O)O [Threonine]
[2]
  Hydrophobicity (scaled computational log(P)): 0.450

## N[C@@H](Cc1ccc(O)cc1)C(=O)O [Tyrosine]
[2]
  Hydrophobicity (scaled computational log(P)): 0.880

## CC[C@H](C)[C@H](N)C(=O)O [Isoleucine]
[2]
  Hydrophobicity (scaled computational log(P)): 0.943

## ELREKLEAWFELFAEFFARF (synthetic amphipathic alpha-helix peptide N356-6 ligand for ATP-binding cassette transporter A1 (ABCA1) having cholesterol efflux activity)
ABCA1 [1]; concentration dependence, cAMP treated cells
  concentration giving max. efflux: 3 µg/mL

## CC(C)[C@H](N)C(=O)O [Valine]
[2]
  Hydrophobicity (scaled computational log(P)): 0.825

## ELREKLEAWFELFREFLERFKS (synthetic amphipathic alpha-helix peptide ligand for ATP-binding cassette transporter A1 (ABCA1) having cholesterol efflux activity) [SEQ ID NO:31]
ABCA1 [1]; lipid-free peptide, J774 macrophages ± cAMP
  stimulation of ABCA1 cholesterol efflux (in words): stimulates ABCA1 cholesterol efflux, similar to 20-mer SEQ ID NO:2 peptide

## ELRDRLEAWLDLLRELLERL [N1154-10]
ABCA1 [1]; + cAMP (ABCA1 upregulated)
  % cholesterol efflux (8 hours): 8.25 ± 0.33%
ABCA1 [1]; no cAMP
  % cholesterol efflux (8 hours): 2.66 ± 0.41%
ABCA1 [3]
  effect of acrolein on cholesterol efflux activity: modest effects of acrolein
ABCA1 [4]; peptide 0.1 μg/ml
  % cholesterol efflux/4 hours: 0.58%
ABCA1 [4]; peptide 0.3 μg/ml
  % cholesterol efflux/4 hours: 1.00%
ABCA1 [4]; peptide 1.0 μg/ml
  % cholesterol efflux/4 hours: 2.12%
ABCA1 [4]; peptide 3.0 μg/ml
  % cholesterol efflux/4 hours: 5.25%
ABCA1 [4]; peptide 10 μg/ml
  % cholesterol efflux/4 hours: 4.15%
ABCA1 [4]; peptide 30 μg/ml
  % cholesterol efflux/4 hours: 3.70%

## CSCC[C@H](N)C(=O)O [Methionine]
[2]
  Hydrophobicity (scaled computational log(P)): 0.738

## NCC(=O)O [Glycine]
[2]
  Hydrophobicity (scaled computational log(P)): 0.501

## C[C@H](N)C(=O)O [Alanine]
[2]
  Hydrophobicity (scaled computational log(P)): 0.616

## ELREKLEALFELFREFLERF (synthetic amphipathic alpha-helix peptide ligand for ATP-binding cassette transporter A1 (ABCA1) having cholesterol efflux activity) [SEQ ID NO:32]
ABCA1 [1]
  cholesterol efflux from cells induced for the ABCA1 response (in words): relatively high-levels of cholesterol efflux

## NCCCC[C@H](N)C(=O)O [Lysine]
[2]
  Hydrophobicity (scaled computational log(P)): 0.283

## NC(=O)C[C@H](N)C(=O)O [Asparagine]
[2]
  Hydrophobicity (scaled computational log(P)): 0.236

## N[C@@H](Cc1ccccc1)C(=O)O [Phenylalanine]
[2]
  Hydrophobicity (scaled computational log(P)): 1.00

## O=C(O)[C@@H]1CCCN1 [Proline]
[2]
  Hydrophobicity (scaled computational log(P)): 0.711

## N[C@@H](Cc1c[nH]cn1)C(=O)O [Histidine]
[2]
  Hydrophobicity (scaled computational log(P)): 0.165

## N[C@@H](Cc1c[nH]c2ccccc12)C(=O)O [Tryptophan]
[2]
  Hydrophobicity (scaled computational log(P)): 0.878

## ELREKLEAWFELFREFLERF [N965-8]
ABCA1 [1]; + cAMP (ABCA1 upregulated)
  % cholesterol efflux (8 hours): 5.26 ± 0.95%
ABCA1 [1]; no cAMP
  % cholesterol efflux (8 hours): 2.29 ± 0.16%
ABCA1 [3]
  effect of acrolein on cholesterol efflux activity: Acrolein greatly decreased the activity
ABCA1 [4]; peptide 0.1 μg/ml
  % cholesterol efflux/4 hours: 0.15%
ABCA1 [4]; peptide 0.3 μg/ml
  % cholesterol efflux/4 hours: 0.52%
ABCA1 [4]; peptide 1.0 μg/ml
  % cholesterol efflux/4 hours: 1.72%
ABCA1 [4]; peptide 3.0 μg/ml
  % cholesterol efflux/4 hours: 4.60%
ABCA1 [4]; peptide 10 μg/ml
  % cholesterol efflux/4 hours: 3.62%
ABCA1 [4]; peptide 30 μg/ml
  % cholesterol efflux/4 hours: 3.66%

## ELREKLEAFFELFREFLERF (synthetic amphipathic alpha-helix peptide ligand for ATP-binding cassette transporter A1 (ABCA1) having cholesterol efflux activity) [SEQ ID NO:33]
ABCA1 [1]
  cholesterol efflux from cells induced for the ABCA1 response (in words): relatively high-levels of cholesterol efflux

## ELREKLEAWFELFREFLERF ([dE][dL][dR][dE][dK][dL][dE][dA][dW][dF][dE][dL][dF][dR][dE][dF][dL][dE][dR][dF])
[5]
  change in HDL subpopulations in human plasma: preferential increase in preβ-1 HDL
